Molecules are shown by their SMILES. Converted amounts (≈) assume the structure as drawn.

The subject of one series is Staphylococcus aureus. The experiment in a line: microbe, parasite or virus in culture. The note with it: M147-2, time 20 hrs. Format: functional.
Series [1] in a line: Cytotoxicity against human HEp-2 cells assessed as cell viability at 1 time of MIC incubated for 48 hrs by CCK8 assay (reference value: 100 %). Format: toxicity, cell-based. Particulars: read-out: Activity.
Series [2] is described as follows: Acute toxicity in ICR mouse model assessed as change in kidney pathology at 25 to 100 mg/kg, IG administered for 7 days by H and E staining based analysis. The class given is organism-based. Particulars: in vivo, po, 168 h, dose 25-100 mg/kg, time 7 day.

Description for Staphylococcus aureus: Antimicrobial activity against Staphylococcus aureus M147-2 harboring erythromycin resistance rRNA methylase B, tetracycline efflux protein L and chloramphenicol-florfenicol resistance methylase assessed as inhibition of visible growth of bacteria incubated for 20 hrs by broth microdilution method

`CC1C/C(=C\c2ccc(-c3ccc(Cl)c(C(F)(F)F)c3)s2)c2nc3ccccc3c(C(=O)O)c2C1` (racemic) displayed an MIC against Staphylococcus aureus of 1 µg/mL (≈ 1.95 µM). Besides, the viability at 48 h, 1 time of MIC in series [1] amounted to 96.9%. Besides, in series [2], the Activity result was “Non-toxic”.
